Conditions: mouse, in vivo

CN[C@@H](C)C(=O)N[C@H](C(=O)N1CCC[C@H]1c1nc(C(=O)c2ccc(F)cc2)cs1)C1CCCCC1 [LCL161]
body weight in combination treatment cohort: fully recovered following the last treatment
